This note sets out measurements from ChEMBL document CHEMBL1156956, “Triazines incorporating (R)-3-methylmorpholine are potent inhibitors of the mammalian target of rapamycin (mTOR) with selectivity over PI3Kalpha” (Bioorg Med Chem Lett, 2010).

Assay [1] is described as follows: Growth inhibition of human MDA468 cells after 3 days by MTS assay. Particulars: MDA-MB-468, 72 h. It is filed as functional, cell-based.
The test system of assay [2] is LNCaP. Kind of assay: Growth inhibition of human LNCAP cells after 3 days by MTS assay. It is filed as functional, cell-based. Particulars: 72 h. Background: Tetrazolium dyes change colour on reduction, which living cells bring about.
For assay [3], the target named is Serine/threonine-protein kinase mTOR (Rattus norvegicus, UniProt P42346). Briefly: Inhibition of rat brain mTOR assessed as p70S6k-GST protein phosphorylation after 30 mins by ELISA. On the technique in general: ELISA stands for enzyme-linked immunosorbent assay.
The target of assay [4] is Phosphatidylinositol 4,5-bisphosphate 3-kinase catalytic subunit alpha isoform (Homo sapiens, UniProt P42336). Briefly: Inhibition of PI3Kalpha assessed as PIP3 accumulation after 24 mins by HTRF assay. (In general: Time-resolved FRET reads energy transfer from a long-lived donor to a nearby acceptor.)
Phosphatidylinositol 4,5-bisphosphate 3-kinase catalytic subunit alpha isoform, sequence (P42336 whole entry, canonical isoform): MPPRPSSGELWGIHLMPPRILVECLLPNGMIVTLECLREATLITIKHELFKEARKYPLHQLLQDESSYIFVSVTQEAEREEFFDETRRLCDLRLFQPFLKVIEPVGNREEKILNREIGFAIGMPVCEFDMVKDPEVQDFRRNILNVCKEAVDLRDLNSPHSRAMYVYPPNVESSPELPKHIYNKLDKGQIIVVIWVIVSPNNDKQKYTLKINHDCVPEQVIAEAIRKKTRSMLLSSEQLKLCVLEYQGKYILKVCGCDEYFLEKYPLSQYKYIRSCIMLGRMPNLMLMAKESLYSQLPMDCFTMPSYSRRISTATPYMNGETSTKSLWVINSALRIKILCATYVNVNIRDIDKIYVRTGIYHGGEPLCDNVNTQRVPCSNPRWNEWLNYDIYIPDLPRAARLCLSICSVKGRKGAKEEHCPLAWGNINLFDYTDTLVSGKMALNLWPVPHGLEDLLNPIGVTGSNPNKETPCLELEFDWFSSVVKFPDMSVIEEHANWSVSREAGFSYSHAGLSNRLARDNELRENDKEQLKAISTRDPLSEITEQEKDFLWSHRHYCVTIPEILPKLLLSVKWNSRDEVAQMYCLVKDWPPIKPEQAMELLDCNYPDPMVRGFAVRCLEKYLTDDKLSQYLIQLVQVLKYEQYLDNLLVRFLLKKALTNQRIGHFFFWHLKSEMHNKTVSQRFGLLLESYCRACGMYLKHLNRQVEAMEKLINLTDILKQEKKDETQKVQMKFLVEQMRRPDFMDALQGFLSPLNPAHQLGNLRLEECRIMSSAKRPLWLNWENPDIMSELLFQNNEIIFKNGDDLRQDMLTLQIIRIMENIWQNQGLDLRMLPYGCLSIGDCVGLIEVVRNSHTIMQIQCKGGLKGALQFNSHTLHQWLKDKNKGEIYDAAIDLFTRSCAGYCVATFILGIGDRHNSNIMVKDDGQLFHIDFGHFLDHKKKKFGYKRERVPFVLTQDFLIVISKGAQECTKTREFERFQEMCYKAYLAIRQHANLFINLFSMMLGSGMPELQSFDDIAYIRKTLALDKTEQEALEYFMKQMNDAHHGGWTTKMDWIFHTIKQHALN

As a reminder, the IC50 is the concentration at which inhibition is half-maximal. For the compound `C[C@@H]1COCCN1c1nc(-c2ccc(NC(=O)Nc3ccc(C(=O)N(C)C)cc3)cc2)nc(N2CCOC[C@H]2C)n1`, the results for the IC50 in assay [1], in assay [2] and in assay [3] were under 0.8 nM, under 0.8 nM and 0.5 nM, respectively.

`C[C@@H]1COCCN1c1nc(-c2ccc(NC(=O)Nc3cccnc3)cc2)nc(C2CCOCC2)n1`: the results for the IC50 in assay [1] and in assay [3] were 80 nM and 0.6 nM, respectively.

For the compound `C[C@@H]1COCCN1c1nc(-c2ccc(NC(=O)Nc3ccc(N4CCN(C)CC4)cc3)cc2)nc(C2CCOCC2)n1`, the IC50 in assay [1] stood at 6 nM; in assay [2], 1 nM; in assay [3], 0.7 nM.

As for `C[C@@H]1COCCN1c1nc(-c2ccc(NC(=O)Nc3ccc(N4CCC(N(C)C)CC4)cc3)cc2)nc(N2CCOC[C@H]2C)n1`, the IC50 is 80 nM in assay [1] and 1.9 nM in assay [3].

Take `C[C@@H]1COCCN1c1nc(-c2ccc(NC(=O)Nc3ccc(N4CCC(N(C)C)CC4)cc3)cc2)nc(C2CCOCC2)n1`: the IC50 in assay [1] turned out to be 38 nM; in assay [2], 16 nM; in assay [3] it was 1.7 nM.

For `C[C@@H]1COCCN1c1nc(-c2ccc(NC(=O)Nc3ccc(N4CCN(C)CC4)nc3)cc2)nc(C2CCOCC2)n1`, it took 52 nM to reach half-maximal inhibition in assay [1] (IC50).

Turning to `CC(C)N1CCN(C(=O)c2ccc(NC(=O)Nc3ccc(-c4nc(C5CCOCC5)nc(N5CCOC[C@H]5C)n4)cc3)cc2)CC1`, the IC50 in assay [1] is under 0.8 nM; in assay [2], under 0.8 nM; in assay [3], 0.7 nM.

Regarding `C[C@@H]1COCCN1c1nc(-c2ccc(NC(=O)Nc3cccnc3)cc2)nc(N2CCOC[C@H]2C)n1`, the figures for the IC50 in assay [1], in assay [2] and in assay [3] were 100 nM, 12 nM and 0.2 nM, respectively.

Regarding `C[C@@H]1COCCN1c1nc(-c2ccc(NC(=O)Nc3ccncc3)cc2)nc(N2CCOC[C@H]2C)n1`, the values for the IC50 in assay [1] and in assay [3] were 40 nM and 0.2 nM, respectively.

`C[C@@H]1COCCN1c1nc(-c2ccc(NC(=O)Nc3ccc(C(=O)N4CCN(C)CC4)cc3)cc2)nc(C2CCOCC2)n1`: the IC50 in assay [1] was under 0.8 nM; in assay [2], under 0.8 nM; in assay [3] it was 1 nM.

Consider `C[C@@H]1COCCN1c1nc(-c2ccc(NC(=O)Nc3ccc(CN(C)C)cc3)cc2)nc(N2CCOC[C@H]2C)n1`, for which the IC50 was 50 nM in assay [1], 21 nM in assay [2] and 2 nM in assay [3].

For `C[C@@H]1COCCN1c1nc(-c2ccc(NC(=O)Nc3ccc(N4CCN(C)CC4)nc3)cc2)nc(N2CCOC[C@H]2C)n1`, the values for the IC50 in assay [1], in assay [2] and in assay [3] were 40 nM, 12 nM and 1.7 nM, respectively.

As to `C[C@@H]1COCCN1c1nc(-c2ccc(NC(=O)Nc3cccnc3)cc2)nc(N2C[C@@H]3C[C@H]2CO3)n1`, the values for the IC50 in assay [1], in assay [2] and in assay [3] were 300 nM, 250 nM and 3.6 nM, respectively.

For the compound `C[C@@H]1COCCN1c1nc(-c2ccc(NC(=O)Nc3ccc(C(=O)N4CCC(N(C)C)CC4)cc3)cc2)nc(N2CCOC[C@H]2C)n1`, the IC50 in assay [1] is 5 nM; in assay [4], 55 nM; in assay [3], 0.5 nM.

For `C[C@@H]1COCCN1c1nc(-c2ccc(NC(=O)Nc3ccc(N4CCNCC4)cc3)cc2)nc(C2CCOCC2)n1`, the figures for the 50% inhibitory concentration (IC50) in assay [1], in assay [2] and in assay [3] were 9 nM, 2 nM and 0.8 nM, respectively.

For the compound `C[C@@H]1COCCN1c1nc(-c2ccc(NC(=O)Nc3ccc(N4CCN(C)CC4)cc3)cc2)nc(N2CCOC[C@H]2C)n1`, the IC50 in assay [1] is 10 nM; in assay [2] it was 3 nM; in assay [3], 1.1 nM.

Regarding `C[C@@H]1COCCN1c1nc(-c2ccc(NC(=O)Nc3ccc(C(=O)N4CCN(C)CC4)cc3)cc2)nc(N2CCOC[C@H]2C)n1`, the IC50 is under 0.8 nM in assay [1], under 0.8 nM in assay [2] and 1.7 nM in assay [3].

As to `C[C@@H]1COCCN1c1nc(-c2ccc(NC(=O)Nc3ccc(OCCN(C)C)cc3)cc2)nc(N2CCOC[C@H]2C)n1`, the concentration for half-maximal inhibition (IC50) in assay [1] amounted to 45 nM; in assay [2], 8 nM; in assay [4], 314 nM; in assay [3], 0.7 nM.
